Experimental data reported in PubChem BioAssay AID256 (DTP/NCI, 2004).
Inconclusive results and toxic doses are left out.

Tested on: CD2F1 mice, L1210 leukemia ip, survival T/C
Test: NCI In Vivo Anticancer Drug Screen. Data for tumor model L1210 Leukemia (intraperitoneal) in CD2F1 (CDF1) mice
Details: higher = longer survival
How it was run: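 In this screen, transplantable tumors were grown in mice given either the compound or its vehicle. Results were expressed as the treated measurement relative to the control measurement.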

[1] = endpoint: mean survival time, dose: 100.0 mg/kg/injection, schedule: Q01DX009 (ip), vehicle: saline with Tween-80
[2] = endpoint: mean survival time, dose: 100.0 mg/kg/injection, schedule: Q04DX003 (ip), vehicle: saline with Tween-80
[3] = endpoint: mean survival time, dose: 200.0 mg/kg/injection, schedule: Q01DX009 (ip), vehicle: saline with Tween-80
[4] = endpoint: mean survival time, dose: 200.0 mg/kg/injection, schedule: Q04DX003 (ip), vehicle: saline with Tween-80
[5] = endpoint: mean survival time, dose: 400.0 mg/kg/injection, schedule: Q01DX009 (ip), vehicle: saline with Tween-80
[6] = endpoint: mean survival time, dose: 400.0 mg/kg/injection, schedule: Q04DX003 (ip), vehicle: saline with Tween-80
[7] = endpoint: mean survival time, dose: 25.0 mg/kg/injection, schedule: Q01DX009 (ip), vehicle: saline with Tween-80
[8] = endpoint: mean survival time, dose: 50.0 mg/kg/injection, schedule: Q01DX009 (ip), vehicle: saline with Tween-80
[9] = endpoint: mean survival time, dose: 100.0 mg/kg/injection, schedule: Q04DX002 (ip), vehicle: saline with Tween-80
[10] = endpoint: mean survival time, dose: 200.0 mg/kg/injection, schedule: Q04DX002 (ip), vehicle: saline with Tween-80
[11] = endpoint: mean survival time, dose: 400.0 mg/kg/injection, schedule: Q04DX002 (ip), vehicle: saline with Tween-80
[12] = endpoint: mean survival time, dose: 100.0 mg/kg/injection, schedule: Q01DX001 (ip), vehicle: saline with Tween-80
[13] = endpoint: mean survival time, dose: 200.0 mg/kg/injection, schedule: Q01DX001 (ip), vehicle: saline with Tween-80

O=C(CCl)c1cnc2ccccc2n1
T/C (endpoint: mean survival time, dose: 5.0 mg/kg/injection, schedule: Q01DX001 (ip), vehicle: saline): 91 % of control
T/C (endpoint: mean survival time, dose: 10.0 mg/kg/injection, schedule: Q01DX001 (ip), vehicle: saline): 94 % of control
T/C (endpoint: mean survival time, dose: 20.0 mg/kg/injection, schedule: Q01DX001 (ip), vehicle: saline): 95 % of control

O=C(c1ccccc1)c1ccc2c(c1)-c1ccccc1-2
T/C [1]: 94 % of control
T/C [2]: 100 % of control
T/C [3]: 94 % of control
T/C [4]: 93 % of control
T/C [5]: 93 % of control
T/C [6]: 95 % of control

Cc1cc2[nH]cnc2cc1Cl
T/C (endpoint: mean survival time, dose: 50.0 mg/kg/injection, schedule: Q01DX009 (ip), vehicle: saline): 98 % of control
T/C (endpoint: mean survival time, dose: 100.0 mg/kg/injection, schedule: Q01DX009 (ip), vehicle: saline): 106 % of control

CCOP(=O)(OCC)C1=C(P(=O)(OCC)OCC)C(F)(F)C(F)(F)C1(F)F
T/C (endpoint: mean survival time, dose: 75.0 mg/kg/injection, schedule: Q01DX001 (ip), vehicle: other): 107 % of control

COc1cc2ccnc(/C=N\NC(N)=S)c2cc1OC
T/C [7]: 93 % of control
T/C [8]: 96 % of control
T/C [1]: 96 % of control
T/C [3]: 95 % of control

SC1(SC2(S)CCCCC2)CCCCC1
T/C [1]: 102 % of control
T/C [3]: 112 % of control
T/C [5]: 103 % of control

CSc1nc(NC2OC(CO)C(O)C(O)C2O)c(I)c(=O)n1C (stereo unspecified)
T/C (endpoint: median survival time, dose: 12.5 mg/kg/injection, schedule: Q01DX005 (ip), vehicle: saline with Tween-80): 100 % of control
T/C (endpoint: median survival time, dose: 25.0 mg/kg/injection, schedule: Q01DX005 (ip), vehicle: saline with Tween-80): 100 % of control
T/C (endpoint: median survival time, dose: 50.0 mg/kg/injection, schedule: Q01DX005 (ip), vehicle: saline with Tween-80): 103 % of control
T/C (endpoint: median survival time, dose: 100.0 mg/kg/injection, schedule: Q01DX005 (ip), vehicle: saline with Tween-80): 107 % of control
T/C (endpoint: median survival time, dose: 200.0 mg/kg/injection, schedule: Q01DX005 (ip), vehicle: saline with Tween-80): 119 % of control

NC(=O)c1n[nH]c(C2OC(CO)C(O)C2O)n1 (stereo unspecified)
T/C (endpoint: mean survival time, dose: 12.5 mg/kg/injection, schedule: Q01DX005 (ip), vehicle: water): 94 % of control
T/C (endpoint: mean survival time, dose: 25.0 mg/kg/injection, schedule: Q01DX005 (ip), vehicle: water): 92 % of control
T/C (endpoint: mean survival time, dose: 50.0 mg/kg/injection, schedule: Q01DX005 (ip), vehicle: water): 94 % of control
T/C (endpoint: mean survival time, dose: 100.0 mg/kg/injection, schedule: Q01DX005 (ip), vehicle: water): 94 % of control
T/C (endpoint: mean survival time, dose: 200.0 mg/kg/injection, schedule: Q01DX005 (ip), vehicle: water): 96 % of control

O=c1[nH]c(=O)n(C2OC(CO)C(O)C2O)cc1Br (stereo unspecified)
T/C [9]: 109 % of control
T/C [10]: 101 % of control
T/C [11]: 101 % of control

CC(C)NC(=O)CCCn1c(=O)c2ccccc2c(=O)n1C
T/C (endpoint: mean survival time, dose: 25.0 mg/kg/injection, schedule: Q04DX003 (ip), vehicle: saline): 104 % of control
T/C (endpoint: mean survival time, dose: 50.0 mg/kg/injection, schedule: Q04DX003 (ip), vehicle: saline): 96 % of control
T/C (endpoint: mean survival time, dose: 100.0 mg/kg/injection, schedule: Q04DX003 (ip), vehicle: saline): 101 % of control
T/C (endpoint: mean survival time, dose: 200.0 mg/kg/injection, schedule: Q04DX003 (ip), vehicle: saline): 96 % of control
T/C (endpoint: mean survival time, dose: 400.0 mg/kg/injection, schedule: Q04DX003 (ip), vehicle: saline): 98 % of control

CC1C2OC2C(C)S1(=O)=O (stereo unspecified)
T/C [12]: 100 % of control
T/C [9]: 93 % of control
T/C [13]: 101 % of control
T/C [10]: 101 % of control
T/C (endpoint: mean survival time, dose: 400.0 mg/kg/injection, schedule: Q01DX001 (ip), vehicle: saline with Tween-80): 101 % of control
T/C [11]: 89 % of control

O=[N+]([O-])c1ccc(N/N=C/C(Br)(Br)Br)c([N+](=O)[O-])c1
T/C (endpoint: mean survival time, dose: 25.0 mg/kg/injection, schedule: Q04DX003 (ip), vehicle: saline with Tween-80): 102 % of control
T/C (endpoint: mean survival time, dose: 50.0 mg/kg/injection, schedule: Q04DX003 (ip), vehicle: saline with Tween-80): 100 % of control

O=C(CC(O)(C(F)(F)F)C(F)(F)F)C(=O)c1ccc([N+](=O)[O-])cc1
T/C [1]: 105 % of control
T/C [3]: 94 % of control

CCN(CC)Cc1cc(Nc2ncnc3[nH]c(C)c(C)c23)ccc1O
T/C (endpoint: mean survival time, dose: 50.0 mg/kg/injection, schedule: Q04DX002 (ip), vehicle: saline with Tween-80): 89 % of control
T/C [12]: 97 % of control
T/C [13]: 100 % of control
T/C [10]: 92 % of control

[Cl][Pt+2][Br].[NH-]CC[NH-]
T/C (endpoint: mean survival time, dose: 0.47 mg/kg/injection, schedule: Q01DX009 (ip), vehicle: saline with Tween-80): 115 % of control
T/C (endpoint: mean survival time, dose: 0.95 mg/kg/injection, schedule: Q01DX009 (ip), vehicle: saline with Tween-80): 105 % of control
T/C (endpoint: mean survival time, dose: 1.9 mg/kg/injection, schedule: Q01DX009 (ip), vehicle: saline with Tween-80): 110 % of control
T/C (endpoint: mean survival time, dose: 3.8 mg/kg/injection, schedule: Q04DX003 (ip), vehicle: saline with Tween-80): 101 % of control
T/C (endpoint: mean survival time, dose: 7.5 mg/kg/injection, schedule: Q01DX009 (ip), vehicle: saline with Tween-80): 94 % of control
T/C (endpoint: mean survival time, dose: 7.5 mg/kg/injection, schedule: Q04DX003 (ip), vehicle: saline with Tween-80): 121 % of control

COc1cc2c(c(OC)c1O)-c1ccc(OC)c(=O)cc1[C@@H](NC(C)=O)CC2
T/C (endpoint: mean survival time, dose: 1.25 mg/kg/injection, schedule: Q01DX005 (ip), vehicle: Klucel (hydroxypropylcellulose) (HPC)): 103 % of control
T/C (endpoint: mean survival time, dose: 2.5 mg/kg/injection, schedule: Q01DX005 (ip), vehicle: Klucel (hydroxypropylcellulose) (HPC)): 104 % of control
T/C (endpoint: mean survival time, dose: 3.12 mg/kg/injection, schedule: Q01DX009 (ip), vehicle: saline): 118 % of control
T/C (endpoint: mean survival time, dose: 5.0 mg/kg/injection, schedule: Q01DX005 (ip), vehicle: Klucel (hydroxypropylcellulose) (HPC)): 110 % of control
T/C (endpoint: mean survival time, dose: 20.0 mg/kg/injection, schedule: Q01DX005 (ip), vehicle: Klucel (hydroxypropylcellulose) (HPC)): 121 % of control
T/C (endpoint: mean survival time, dose: 40.0 mg/kg/injection, schedule: Q01DX005 (ip), vehicle: Klucel (hydroxypropylcellulose) (HPC)): 110 % of control

O=C1C=C(NC2CCCCCC2)C(=O)c2nccnc21
T/C (endpoint: mean survival time, dose: 6.25 mg/kg/injection, schedule: Q01DX009 (ip), vehicle: saline with Tween-80): 91 % of control
T/C (endpoint: mean survival time, dose: 12.5 mg/kg/injection, schedule: Q01DX009 (ip), vehicle: saline with Tween-80): 95 % of control
T/C [7]: 91 % of control
T/C [8]: 93 % of control

CC(C)C(C(=O)c1ccccc1)C(c1ccccc1)c1ccccc1 (stereo unspecified)
T/C (endpoint: mean survival time, dose: 100.0 mg/kg/injection, schedule: Q04DX003 (ip), vehicle: other): 106 % of control
T/C (endpoint: mean survival time, dose: 200.0 mg/kg/injection, schedule: Q04DX003 (ip), vehicle: other): 97 % of control
T/C (endpoint: mean survival time, dose: 400.0 mg/kg/injection, schedule: Q04DX003 (ip), vehicle: other): 100 % of control

O=C(OC1C2C=COC(OC3OC(CO)C(O)C(O)C3O)C2C2(CO)OC12)c1ccc(O)cc1 (stereo unspecified)
T/C (endpoint: mean survival time, dose: 25.0 mg/kg/injection, schedule: Q01DX001 (ip), vehicle: carboxymethylcellulose (CMC)): 101 % of control
T/C (endpoint: mean survival time, dose: 50.0 mg/kg/injection, schedule: Q01DX001 (ip), vehicle: carboxymethylcellulose (CMC)): 98 % of control
T/C (endpoint: mean survival time, dose: 100.0 mg/kg/injection, schedule: Q01DX001 (ip), vehicle: carboxymethylcellulose (CMC)): 89 % of control

COc1cc2c(C(=O)O)cc(-c3ccc(Cl)cc3)nc2cc1Cl
T/C (endpoint: mean survival time, dose: 100.0 mg/kg/injection, schedule: Q01DX001 (ip), vehicle: saline): 98 % of control

CC1C(=O)OC2C1CCC1(C)C3OC3C(=O)C3(C)OC231 (stereo unspecified)
T/C [9]: 96 % of control

O=C(/C=C/c1ccccc1)SCc1ccccc1
T/C [2]: 96 % of control
T/C [4]: 98 % of control
T/C [6]: 94 % of control

CSc1c(Cl)cc(Cl)cc1C(=O)O
T/C [2]: 94 % of control
T/C [4]: 91 % of control
T/C [6]: 96 % of control

CN(C)N=Nc1cn[nH]c1C(N)=O
T/C (endpoint: mean survival time, dose: 100.0 mg/kg/injection, schedule: Q01DX009 (ip), vehicle: Klucel (hydroxypropylcellulose) (HPC)): 172 % of control

COc1ccc(-n2c(=O)c(N=Nc3ccccc3)c(O)n(-c3ccc(C)cc3)c2=S)cc1
T/C (endpoint: mean survival time, dose: 100.0 mg/kg/injection, schedule: Q01DX001 (ip), vehicle: acetone): 96 % of control
T/C (endpoint: mean survival time, dose: 200.0 mg/kg/injection, schedule: Q01DX001 (ip), vehicle: acetone): 94 % of control
T/C (endpoint: mean survival time, dose: 400.0 mg/kg/injection, schedule: Q01DX001 (ip), vehicle: acetone): 96 % of control

O.O.O=S(=O)(O)O.[Co+3].[NH2-].[NH2-].[NH2-].[NH2-]
T/C (endpoint: mean survival time, dose: 100.0 mg/kg/injection, schedule: Q04DX002 (ip), vehicle: saline): 108 % of control
